# Laboratory results from patent US11452718B2 (AVALYN PHARMA INC., priority 2012, dated 2022).
# Marks after values point to notes of the source that are not given here.
# Columns and labels:
# [1] = Buffer and pH effects: pirfenidone solubility in citrate and phosphate buffers; assay type: physicochemical; conditions: Citrate buffer 5 mM, pH 6; ambient temperature overnight
# Procedure: The sample was agitated at ambient temperature overnight. The sample was visually inspected, appearance recorded, centrifuged to sediment any un-dissolved material, and the supernatant withdrawn via syringe through a 0.22 μm PVDF filter. […] The remaining filtered sample was split into three equal volumes in glass vials and placed at 25° C./60RH, 40° C./75RH and refrigeration. Samples were wrapped in aluminum foil to reduce light exposure. After the first night of incubation, samples were briefly visually inspected for any signs of discoloration or precipitate formation.
# [2] = Osmolality determination and nebulization for taste testing, throat irritation and cough response of selected formulations; conditions: for Cough Response? / Throat Irritation?: nebulized
# Excerpt: Selected formulations were subjected to osmolality determination and nebulization for taste testing and throat irritation and or cough response.
# [3] = 85% saturation pirfenidone formulations exposed to several temperatures (re-crystallization); assay type: physicochemical; conditions: overnight
# Excerpt: However, in all cases pirfenidone eventually re-crystallized. This re-crystallization was not inhibited by pre-filtration of the sample.
# [4] = Process temperature development study (60° C. dissolution, cooling to 25° C.); assay type: physicochemical; conditions: for Pirfenidone (mg/mL) >Re-crystal: after stepwise cooling to 25° C. and later re-crystallization
# Procedure: Formulations were prepared as described in Table 11. […] The final volume of each formulation was 5 mL. […] Each sample was mixed thoroughly and agitated overnight at 60° C. Rapid cooling and step-wise cooling from 60° C. to 25° C. was performed. HPLC analysis was performed on samples taken after overnight incubation and after cooling to 25° C. Prior to HPLC analysis, formulations were filtered via syringe through a 0.45 μm PVDF filter.
# [5] = Aqueous formulation observations: solubility, salt addition, taste, dissolution time; assay type: physicochemical
# Procedure: However, at this (and lower) concentration it was determined that salt addition was required to improve acute tolerability upon inhalation of a nebulized solution (otherwise a hypotonic solution). To address tonicity, NaCl or MgCl2 were added. […] This effect was not observed at ˜pH 8.
# [6] = cited from earlier work
# CYP1A2 = target: T1, CYP1A2 (Homo sapiens, UniProt P05177); conditions: hepatic microsomes; cited from earlier work
# T1 construct: In vitro metabolism studies with hepatic microsomes; from tissue; host or cells: hepatic microsomes
# [7] = test system: CYP2C9, 2C19, 2D6, and 2E1; conditions: hepatic microsomes; cited from earlier work
# [8] = pirfenidone 27.2 mg/mL, 4% EtOH, 8% PG, 88% phosphate buffer (5 mM), pH 6.6
# [9] = pirfenidone 34.7 mg/mL, 6% EtOH, 12% PG, 82% phosphate buffer (5 mM), pH 7.0
# [10] = pirfenidone 43.7 mg/mL, 8% EtOH, 16% PG, 0 mM sodium saccharin, 76% phosphate buffer (5 mM), pH 7.0
# [11] = pirfenidone 43.7 mg/mL, 8% EtOH, 16% PG, 0.3 mM sodium saccharin, 76% phosphate buffer (5 mM), pH 7.0
# [12] = EtOH 0, PG 8, PS80 0 % v/v, 92% phosphate buffer (5 mM), pH 6.6
# [13] = EtOH 0, PG 8, PS80 0.04 % v/v, 92% phosphate buffer (5 mM), pH 6.7
# [14] = EtOH 4, PG 0, PS80 0.04 % v/v, 96% phosphate buffer (5 mM), pH 6.6
# [15] = EtOH 4, PG 8, PS80 0 % v/v, 88% phosphate buffer (5 mM), pH 6.7
# [16] = EtOH 4, PG 8, PS80 0.04 % v/v, 88% phosphate buffer (5 mM), pH 6.7
# T1 sequence (P05177 whole entry): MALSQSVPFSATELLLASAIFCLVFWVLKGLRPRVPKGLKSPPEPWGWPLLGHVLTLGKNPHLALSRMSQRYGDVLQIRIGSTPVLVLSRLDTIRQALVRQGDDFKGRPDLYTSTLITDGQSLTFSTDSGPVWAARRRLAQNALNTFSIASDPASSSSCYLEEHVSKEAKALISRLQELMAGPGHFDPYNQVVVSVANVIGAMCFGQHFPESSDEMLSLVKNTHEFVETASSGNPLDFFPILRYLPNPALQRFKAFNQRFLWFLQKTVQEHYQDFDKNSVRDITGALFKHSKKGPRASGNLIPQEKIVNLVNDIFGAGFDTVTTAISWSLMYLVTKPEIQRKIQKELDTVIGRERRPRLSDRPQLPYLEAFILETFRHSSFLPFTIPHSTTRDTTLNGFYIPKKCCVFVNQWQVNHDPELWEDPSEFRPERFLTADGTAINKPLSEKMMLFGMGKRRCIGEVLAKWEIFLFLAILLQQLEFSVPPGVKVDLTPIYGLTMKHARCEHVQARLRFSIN
compound,measurement,setting,value
"Cc1ccc(=O)n(-c2ccccc2)c1 [pirfenidone, 5-methyl-1-phenyl-2-(1H)-pyridone]",Pirfenidone Saturation Solubility,[1],18.4 mg/mL
same,Cough Response?,[2]; [8],No
same,Throat Irritation?,[2]; [8],No
same,Cough Response?,[2]; [9],No
same,Throat Irritation?,[2]; [9],No
same,Cough Response?,[2]; [10],No
same,Throat Irritation?,[2]; [10],No
same,Cough Response?,[2]; [11],No
same,Throat Irritation?,[2]; [11],No
same,Osmolality,"[2]; pirfenidone 27.2 mg/mL, 4% EtOH, 8% PG, 88% phosphate buffer (5 mM), pH 6.6, calculated",~1830* mOsmo/Kg
same,Osmolality,"[2]; pirfenidone 34.7 mg/mL, 6% EtOH, 12% PG, 82% phosphate buffer (5 mM), pH 7.0, calculated",~2750* mOsmo/Kg
same,Osmolality,[2]; [10],3672 mOsmo/Kg
same,Osmolality,[2]; [11],3672 mOsmo/Kg
same,Recrystallization upon storage,"[3]; 4° C., pirfenidone 23.0 mg/mL (85% saturation), 4% EtOH, 8% PG, 88% phosphate buffer (5 mM), pH 6.6",No
same,Recrystallization upon storage,"[3]; 4° C., pirfenidone 29.5 mg/mL, 6% EtOH, 12% PG, 82% phosphate buffer (5 mM), pH 7.0",No
same,Recrystallization upon storage,"[3]; 4° C., pirfenidone […], 8% EtOH, 16% PG, 76% phosphate buffer (5 mM), pH 7.0",No
same,Recrystallization upon storage,"[3]; 15° C., pirfenidone 23.0 mg/mL (85% saturation), 4% EtOH, 8% PG, 88% phosphate buffer (5 mM), pH 6.6",No
same,Recrystallization upon storage,"[3]; 15° C., pirfenidone 29.5 mg/mL, 6% EtOH, 12% PG, 82% phosphate buffer (5 mM), pH 7.0",No
same,Recrystallization upon storage,"[3]; 15° C., pirfenidone […], 8% EtOH, 16% PG, 76% phosphate buffer (5 mM), pH 7.0",No
same,Recrystallization upon storage,"[3]; 25° C., pirfenidone 23.0 mg/mL (85% saturation), 4% EtOH, 8% PG, 88% phosphate buffer (5 mM), pH 6.6",No
same,Recrystallization upon storage,"[3]; 25° C., pirfenidone 27.2 mg/mL (saturation solubility), 4% EtOH, 8% PG, 88% phosphate buffer (5 mM), pH 6.6",Yes
same,Recrystallization upon storage,"[3]; 25° C., pirfenidone 29.5 mg/mL, 6% EtOH, 12% PG, 82% phosphate buffer (5 mM), pH 7.0",No
same,Recrystallization upon storage,"[3]; 25° C., pirfenidone 34.7 mg/mL, 6% EtOH, 12% PG, 82% phosphate buffer (5 mM), pH 7.0",Yes
same,Recrystallization upon storage,"[3]; 25° C., pirfenidone 43.7 mg/mL, 8% EtOH, 16% PG, 76% phosphate buffer (5 mM), pH 7.0",Yes
same,Recrystallization upon storage,"[3]; 25° C., pirfenidone […], 8% EtOH, 16% PG, 76% phosphate buffer (5 mM), pH 7.0",No
same,Recrystallization upon storage,"[3]; −20° C., pirfenidone 23.0 mg/mL (85% saturation), 4% EtOH, 8% PG, 88% phosphate buffer (5 mM), pH 6.6, crystals re-dissolved at 25° C. without agitation",Yes^f
same,Recrystallization upon storage,"[3]; −20° C., pirfenidone 29.5 mg/mL, 6% EtOH, 12% PG, 82% phosphate buffer (5 mM), pH 7.0, crystals re-dissolved at 25° C. without agitation",Yes^f
same,Recrystallization upon storage,"[3]; −20° C., pirfenidone […], 8% EtOH, 16% PG, 76% phosphate buffer (5 mM), pH 7.0, crystals re-dissolved at 25° C. without agitation",Yes^f
same,full dissolution on heating,[4]; 60° C.,≥ 50 mg/mL
same,Observations: dissolution,[4]; [12],Fully dissolved after overnight at 60 °C
same,Observations: stable at 25° C. before re-crystallization,[4]; [12],Stable at 25 °C for >4 hours before re-
same,Pirfenidone (mg/mL) >60° C.,[4]; [12],54.6 mg/mL
same,Pirfenidone (mg/mL) >Re-crystal,[4]; [12],18.6 mg/mL
same,Observations: dissolution,[4]; [13],Fully dissolved after overnight at 60 °C
same,Observations: stable at 25° C. before re-crystallization,[4]; [13],Stable at 25 °C for >4 hours before re-
same,Pirfenidone (mg/mL) >60° C.,[4]; [13],52.8 mg/mL
same,Pirfenidone (mg/mL) >Re-crystal,[4]; [13],22.3 mg/mL
same,Observations: dissolution,[4]; [14],Fully dissolved after overnight at 60 °C
same,Observations: stable at 25° C. before re-crystallization,[4]; [14],Stable at 25 °C for >4 hours before re-
same,Pirfenidone (mg/mL) >60° C.,[4]; [14],50.7 mg/mL
same,Pirfenidone (mg/mL) >Re-crystal,[4]; [14],22.4 mg/mL
same,Observations: dissolution,[4]; [15],Fully dissolved after overnight at 60 °C
same,Observations: stable at 25° C. before re-crystallization,[4]; [15],Stable at 25 °C for >4 hours before re-
same,Pirfenidone (mg/mL) >60° C.,[4]; [15],50.34 mg/mL
same,Pirfenidone (mg/mL) >Re-crystal,[4]; [15],27.6 mg/mL
same,Observations: dissolution,[4]; [16],Fully dissolved after overnight at 60 °C
same,Observations: stable at 25° C. before re-crystallization,[4]; [16],Stable at 25 °C for >4 hours before re-
same,Pirfenidone (mg/mL) >60° C.,[4]; [16],51.8 mg/mL
same,Pirfenidone (mg/mL) >Re-crystal,[4]; [16],26.8 mg/mL
same,outcome of rapid cooling,[4]; rapid cooling to 25° C.,rapid recrystallization
same,concentration staying in solution for several hours,[4]; slow step-wise cooling from 60° C. to 25° C.,about 50 mg/mL
same,formulation stability on addition of MgCl2,"[5]; MgCl2 added, 1:1 and 1:2 mole ratios magnesium to pirfenidone","maintained a stable, soluble solution"
same,formulation stability on addition of NaCl,"[5]; NaCl added to address tonicity, ambient storage",destabilized the formulation and resulted in precipitation upon ambient storage
same,acute tolerability upon inhalation of a nebulized solution,[5]; addition of NaCl,improved acute tolerability
same,solubility,"[5]; aqueous solution, aqueous buffer, across a pH range of about 4.0 to about 8.0",17 mg/mL
same,Lung Cmax,[6]; 40 mg/kg intravenous dose,30 mcg/gram wet tissue
same,plasma Cmax,[6]; 40 mg/kg intravenous dose,about 55 mcg/mL
same,"wet lung half-life, longer than the plasma half-life",[6]; intravenous,about 45%
same,share of pirfenidone metabolised via the enzyme,CYP1A2,approximately 48%
same,contribution of each isoenzyme to metabolism,[7],less than 13%
